Test results as given in patent publication US12077503B2, “Substituted cyclic amides and their use as herbicides” (FMC CORPORATION, priority 2015, dated 2024).

Assays:
Assay type in all cases: in vivo
[1] = system: ryegrass, Italian (Italian ryegrass, Lolium multiflorum); test: Test A postemergence; conditions: Lolium multiflorum, post-emergence, 240 h, Postemergence, read-out: Ryegrass, Italian plant response rating (0 to 100 scale)
Outline: (§1)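 Preemergence soil spray on seeded pots or post-emergence spray on 1–2 leaf plants, in loam–sand blend. Greenhouse ~10 d. Visual rating 0–100 against untreated plants.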

[2] = system: blackgrass (Alopecurus myosuroides); test: Test A postemergence; conditions: Alopecurus myosuroides, post-emergence, 240 h, Postemergence, read-out: Blackgrass plant response rating (0 to 100 scale)
Outline: as §1

Kochia (Kochia scoparia) [3] = test: Test A postemergence; conditions: Bassia scoparia, post-emergence, 240 h, Postemergence, read-out: Kochia plant response rating (0 to 100 scale)
Outline: as §1

[4] = system: pigweed (Amaranthus retroflexus); test: Test A postemergence; conditions: Amaranthus retroflexus, post-emergence, 240 h, Postemergence, read-out: Pigweed plant response rating (0 to 100 scale)
Outline: as §1

[5] = system: giant foxtail (Setaria faberii); test: Test A postemergence; conditions: Setaria faberi, post-emergence, 240 h, Postemergence, read-out: Foxtail, Giant plant response rating (0 to 100 scale)
Outline: as §1

[6] = system: ragweed (common ragweed, Ambrosia elatior); test: Test A postemergence; conditions: Ambrosia artemisiifolia, post-emergence, 240 h, Postemergence, read-out: Ragweed plant response rating (0 to 100 scale)
Outline: as §1

[7] = system: wheat (Triticum aestivum); test: Test A postemergence; conditions: Triticum aestivum, post-emergence, 240 h, Postemergence, read-out: Wheat plant response rating (0 to 100 scale)
Outline: as §1

[8] = system: Galium (catchweed bedstraw, Galium aparine); test: Test A postemergence; conditions: Galium, post-emergence, 240 h, Postemergence, read-out: Galium plant response rating (0 to 100 scale)
Outline: as §1

[9] = system: barnyardgrass (Echinochloa crus-galli); test: Test A postemergence; conditions: Echinochloa crus-galli, post-emergence, 240 h, Postemergence
Outline: as §1

corn (Zea mays) = test: Test A postemergence; conditions: Zea mays, post-emergence, 240 h, Postemergence, read-out: Corn plant response rating (0 to 100 scale)
Outline: as §1

[10] = system: ryegrass, Italian (Italian ryegrass, Lolium multiflorum); test: Test A preemergence; conditions: Lolium multiflorum, pre-emergence, 240 h, Preemergence
Outline: as §1

Kochia (Kochia scoparia) [11] = test: Test A preemergence; conditions: Bassia scoparia, pre-emergence, 240 h, Preemergence
Outline: as §1

[12] = system: pigweed (Amaranthus retroflexus); test: Test A preemergence; conditions: Amaranthus retroflexus, pre-emergence, 240 h, Preemergence
[13] = system: giant foxtail (Setaria faberii); test: Test A preemergence; conditions: Setaria faberi, pre-emergence, 240 h, Preemergence
Outline: as §1

[14] = system: ragweed (common ragweed, Ambrosia elatior); test: Test A preemergence; conditions: Ambrosia artemisiifolia, pre-emergence, 240 h, Preemergence
Outline: as §1

[15] = system: barnyardgrass (Echinochloa crus-galli); test: Test A preemergence; conditions: Echinochloa crus-galli, pre-emergence, 240 h, Preemergence
Outline: as §1

[16] = system: ducksalad (Heteranthera limosa); test: Test B flooded paddy test; conditions: Heteranthera limosa, 360 h, Flood, 250 g ai/ha; visually evaluated after 13 to 15 d; read-out: Plant response rating, Ducksalad (0 to 100 scale where 0 is no effect and 100 is complete control)
Outline: (§2)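 Rating scale 0–100 (visual, vs untreated controls) after a 13–15 d greenhouse period; application to the flood layer, 3 cm above soil and maintained; plants at 2-leaf stage when treated.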

rice (Oryra sativa) = test: Test B flooded paddy test; conditions: Oryza sativa, 360 h, Flood, 250 g ai/ha; visually evaluated after 13 to 15 d; read-out: Plant response rating, Rice (0 to 100 scale where 0 is no effect and 100 is complete control)
Outline: as §2

[17] = system: barnyardgrass (Echinochloa crus-galli); test: Test B flooded paddy test; conditions: Echinochloa crus-galli, 360 h, Flood, 250 g ai/ha; visually evaluated after 13 to 15 d; read-out: Plant response rating, Barnyardgrass (0 to 100 scale where 0 is no effect and 100 is complete control)
Outline: as §2

[18] = system: sedge, umbrella (small-flower umbrella sedge, Cyperus difformis); test: Test B flooded paddy test; conditions: Cyperus difformis, 360 h, Flood, 250 g ai/ha; visually evaluated after 13 to 15 d; read-out: Plant response rating, Sedge, Umbrella (0 to 100 scale where 0 is no effect and 100 is complete control)
Outline: as §2

[19] = 125 g ai/ha, visual rating about 10 d after treatment
[20] = 31 g ai/ha, 0 is no effect, 100 is complete control

Structure (SMILES): Cc1ccc([C@H]2CN(C)C(=O)[C@@H]2C(=O)Nc2cccc(F)n2)cc1 [Compound 1375]
- pest or weed control at 125 g/ha [1, 19]: 20%
- pest or weed control at 31 g/ha [1, 20]: 0%
- pest or weed control at 125 g/ha [2, 19]: 40%
- pest or weed control at 31 g/ha [2, 20]: 0%
- pest or weed control at 125 g/ha (Kochia (Kochia scoparia) [3]; [19]): 50%
- pest or weed control at 31 g/ha (Kochia (Kochia scoparia) [3]; [20]): 30%
- pest or weed control at 125 g/ha [4, 19]: 0%
- pest or weed control at 31 g/ha [4, 20]: 0%
- pest or weed control at 125 g/ha [5, 19]: 90%
- pest or weed control at 31 g/ha [5, 20]: 70%
- pest or weed control at 125 g/ha [6, 19]: 20%
- pest or weed control at 31 g/ha [6, 20]: 0%
- plant injury at 125 g/ha [7, 19]: 30%
- plant injury at 31 g/ha [7, 20]: 0%
- pest or weed control at 125 g/ha [8, 19]: 50%
- pest or weed control at 31 g/ha [8, 20]: 20%
- pest or weed control at 125 g/ha ([9]; 125 g ai/ha, visual rating about 10 d after treatment, read-out: Barnyardgrass plant response rating (0 to 100 scale, 0 no effect, 100 complete control)): 100%
- pest or weed control at 31 g/ha ([9]; 31 g ai/ha, 0 is no effect, 100 is complete control, read-out: Barnyardgrass plant response rating (0 to 100 scale)): 70%
- plant injury at 125 g/ha (corn (Zea mays); [19]): 30%
- plant injury at 31 g/ha (corn (Zea mays); [20]): 0%
- pest or weed control at 31 g/ha ([10]; 31 g ai/ha, 0 to 100 scale where 0 is no effect and 100 is complete control, read-out: Ryegrass, Italian plant response rating): 0%
- pest or weed control at 125 g/ha ([10]; 125 g ai/ha, 0 to 100 scale (0 no effect, 100 complete control), read-out: Plant response rating, Ryegrass, Italian): 70%
- pest or weed control at 31 g/ha (Kochia (Kochia scoparia) [11]; 31 g ai/ha, 0 to 100 scale where 0 is no effect and 100 is complete control, read-out: Kochia plant response rating): 50%
- pest or weed control at 125 g/ha (Kochia (Kochia scoparia) [11]; 125 g ai/ha, 0 to 100 scale (0 no effect, 100 complete control), read-out: Plant response rating, Kochia): 70%
- pest or weed control at 31 g/ha ([12]; 31 g ai/ha, 0 to 100 scale where 0 is no effect and 100 is complete control, read-out: Pigweed plant response rating): 0%
- pest or weed control at 125 g/ha ([12]; 125 g ai/ha, 0 to 100 scale (0 no effect, 100 complete control), read-out: Plant response rating, Pigweed): 0%
- pest or weed control at 31 g/ha ([13]; 31 g ai/ha, 0 to 100 scale where 0 is no effect and 100 is complete control, read-out: Foxtail, Giant plant response rating): 90%
- pest or weed control at 125 g/ha ([13]; 125 g ai/ha, 0 to 100 scale (0 no effect, 100 complete control), read-out: Plant response rating, Foxtail, Giant): 100%
- pest or weed control at 31 g/ha ([14]; 31 g ai/ha, 0 to 100 scale where 0 is no effect and 100 is complete control, read-out: Ragweed plant response rating): 40%
- pest or weed control at 125 g/ha ([14]; 125 g ai/ha, 0 to 100 scale (0 no effect, 100 complete control), read-out: Plant response rating, Ragweed): 70%
- pest or weed control at 31 g/ha ([15]; 31 g ai/ha, 0 to 100 scale where 0 is no effect and 100 is complete control, read-out: Barnyardgrass plant response rating): 90%
- pest or weed control at 125 g/ha ([15]; 125 g ai/ha, 0 to 100 scale (0 no effect, 100 complete control), read-out: Plant response rating, Barnyardgrass): 100%
- pest or weed control at 250 g/ha [16]: 95%
- pest or weed control at 250 g/ha (rice (Oryra sativa)): 0%
- pest or weed control at 250 g/ha [17]: 70%
- pest or weed control at 250 g/ha [18]: 0%
